Data reported in US20180071280A1, “MODULATORS OF CELL DEATH PROCESSES” (URIFER LTD., priority 2015, published 2018).

Experiments:
Assay type in all cases: cell-based, human
[1] = test system: SW620 CC cells; assay: MultiTox-Fluor cytotoxicity assay in SW620 CC cells
Method: Cell lines (HCT116, ht29, Rko, Hep3B, SW48, SW620, MDA-MB-231, PANC-1, su.86.86, Hfb) were obtained from the American Type Culture Collection (ATCC). Cell type authentication was carried out by microscope and DNA profiles using short tandem repeat analysis. Cells were grown in Minimum Essential Medium (MEM) containing 10% heat-inactivated Fetal Bovine Serum (FBS) or in Dulbecco's Modified Eagle's Medium (DMEM) containing 10% FBS, where specified, at 37° C. with 5% CO2. In general, the in-vitro experiments were carried out with 2. μM 0260 added into the growth medium. Dose response experiments included increasing 0260 concentrations. Cell death levels were determined using the MultiTox-Fluor Multiplex Cytotoxicity Assay (G9201, Promega, USA). In brief, 10,000 cells were seeded in black bottom 96 wells plate and were allowed to attach to the plate bottom for 16 h before the administration of various 0260 concentration in each well. Cell death levels were determined according to the manufacturer's protocol.
Cells death level was determined using the MultiTox-Fluor Multiplex Cytotoxicity Assay (G9201, Promega, USA) according to the manufacturer's protocol.

[2] = test system: malignant cells (CC and MDA cells); assay: Cellular ATP level (HPLC) in malignant cells; conditions: SW620, co-treatment with 0260
Method: Quantification of intracellular ATP was carried out using HPLC as previously described.
Cells were suspended in 400 μl cold 0.4M perchloric acid solution, incubated on ice for 15 min, centrifuged at 12,000×g, neutralized with 4M K2CO3 to pH 7.5, incubated for 15 min on ice and concentrated (10,000×g). Chromatographic analyses were performed using Hitachi Elite LaChrom system at 30° C. applying supernatants to SUPELCOSIL™ LC-18-S HPLC Column (5 μm particle size, L×I.D. 25 cm×2.1 mm), flow rate 0.2 mL/min under isocratic elution conditions (50 mM potassium phosphate, 100 mM triethylamine, pH 6.5 (adjusted with phosphoric acid)):Acetonitrile (98.5:1.5)). Each analysis cycle was set to 30 min, chromatographic flow was monitored at 260 nm and integrated using EZChrom Elite Software.

[3] = test system: CC cells; assay: Autophagy in CC cells (TEM, LC3 immuno-staining, WB); conditions: co-treatment with 0260
Method: (§1) WB analyses were carried out as previously described before. In brief, cells were lysed in RIPA buffer mixed with protease inhibitors and separated on SDS-PAGE gel, transferred to PVDF membrane treated with 5% skim milk to exclude non-specific background and incubated with a primary antibody over-night. The membrane was incubated for 1 h with a secondary antibody conjugated to Horseradish Peroxidase (HRP). The protein-antibody complex was visualized using the SuperSignal West Pico Chemiluminescent Substrate (Thermo scientific, USA).
Cells were fixed with 4% paraformaldehyde (30 min) and incubated with Permeabilization Solution containing 0.1% Triton X-100 (Sigma-Aldrich, Israel) in PBS at room temperature for 1 h. Nonspecific binding was blocked with PBS containing 10% fetal bovine serum for 1 h at room temperature. Cells were incubated with specific antibodies diluted 1:100 overnight at 4° C. Cells were washed (5 min) in PBS containing 0.2% Tween-20 (Sigma-Aldrich, Israel) to remove non-specific binding. Bound primary antibodies were detected by Alexa Fluor® 488 goat anti-mouse IgG antibody or Alexa Fluor® 594 goat anti-rabbit IgG antibody (Molecular Probes, Invitrogen, U.K.). Nuclei were visualized by incubation with Hoechst 33342 solution for 10 min (1:500). Nonspecific staining, as determined by binding to the secondary antibody only, was negligible. The immunostained slides were examined under the fluorescence microscope AxioimagerZ1 (Zeiss, Germany) or confocal fluorescence microscope (Olympus-FV1000).
Cells were grown in MEM or DMEM, washed twice with PBS and fixed for 5 minutes in Karnovsky fixative (2.5% glutaraldehyde, 2.5% paraformaldehyde in cacodylate buffer pH 7.4) on the tissue culture plate. Cells were then harvested, and transferred to 1.5 ml tube for further 1 h fixation at room temperature. The cells were then stored O.N at 4C° after which the samples were washed in 0.1 M cacodylate buffer and post-fixed with 1% OsO4 in 0.1 M sodium cacodylate buffer (Sigma-Aldrich, Israel) for 1 h. […]

[4] = test system: PARP-1; assay: PARP-1 poly-ADP-ribosylation activity in CC cells (WB); conditions: co-treatment with 0260
Method: as §1

SMILES	death levels of 0260 treated cells with autophagy inhibitor ([1]; SW620, co-treatment with 0260)	ATP level in 0260 treated cells with autophagy inhibitor [2]	decrease of 0260-induced death ([1]; CC cells, co-treatment with 0260) [%]	induced autophagy with PARP-1 inhibition (LC3II to LC3 I ratio) [3]	0260-induced poly-ADP-ribosylation activity with PARP-1 inhibitor [4]
Cn1cnc(N)c2ncnc1-2 [3-MA, 3-Methyladenine, reference compound]	reduced death levels	almost completely restored the ATP level	–	–	–
NC(=O)c1cccc(N)c1 [3AB, 3-Aminobenzamide, reference compound]	–	–	50	decreased LC3II to LC3 I ratio	abolished
